Here are results for 34 compounds from ChEMBL document CHEMBL1201862, “PubChem BioAssay data set” (2004).

Data set [1] concerns the target Cytochrome P450 3A4 (Homo sapiens, UniProt P08684).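 Note: CYP3A4 tested as one member of a cytochrome P450 panel screen.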
The nature of data set [2]: inhibitors of firefly luciferase expression or activity, dose response, H4 neuroglioma cells, luminescence (AID 1990). It is filed as functional, cell-based.
The nature of data set [3]: inhibitors of SNCA 5'UTR-driven reporter translation, confirmation, H4 neuroglioma cells, luminescence (AID 1988). The format is functional, cell-based.
Data set [4] is described as follows: Luminescence Cell-Based Dose Response HTS to Identify Inhibitors of 5'UTR Stem-Loop Driven Prion Protein mRNA Translation in H4 Neuroglioblastoma Cells. [Related pubchem assays: 1827 (Project Summary), 1813 (Primary HTS)]. It is filed as functional.
Data set [5] has as its target Cytochrome P450 2D6 (Homo sapiens, UniProt P10635).
The target of data set [6] is Cytochrome P450 2C19 (Homo sapiens, UniProt P33261). Briefly: Cytochrome panel assay with activity outcomes. Panel member name: p450-cyp2c19 Compounds with AC50 equal or less than 10 uM are considered active. The format is functional.
Data set [7] has as its target Cytochrome P450 2C9 (Homo sapiens, UniProt P11712).
Data set [8] has as its target T1, Cytochrome P450 1A2 (Homo sapiens, UniProt P05177).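 Note: PubChem cytochrome P450 panel assay, CYP1A2 panel member.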
T1 sequence (P05177 whole entry): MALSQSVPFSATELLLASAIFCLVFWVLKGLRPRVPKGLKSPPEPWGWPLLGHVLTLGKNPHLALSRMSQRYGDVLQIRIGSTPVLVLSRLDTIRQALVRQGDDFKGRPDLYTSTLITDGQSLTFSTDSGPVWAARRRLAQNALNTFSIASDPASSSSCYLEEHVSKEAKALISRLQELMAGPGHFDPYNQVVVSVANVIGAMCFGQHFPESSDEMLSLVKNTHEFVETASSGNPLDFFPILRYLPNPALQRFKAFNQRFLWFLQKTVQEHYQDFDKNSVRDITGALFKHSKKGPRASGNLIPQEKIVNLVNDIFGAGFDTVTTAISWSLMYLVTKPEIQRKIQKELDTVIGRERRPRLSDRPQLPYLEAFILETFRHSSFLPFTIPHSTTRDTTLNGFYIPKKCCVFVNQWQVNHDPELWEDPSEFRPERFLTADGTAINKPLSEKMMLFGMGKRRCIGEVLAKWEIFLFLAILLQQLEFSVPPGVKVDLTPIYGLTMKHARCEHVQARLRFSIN

Data set [9] in a line: cytotoxicity toward NIH3T3 fibroblasts, dose response, counter-screen, cell-based, ATP luminescence, mouse fibroblasts (AID 2010).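 Note: cells exposed to compound for about 90 hours before reading.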 The format is functional. A general note: A counterscreen serves to expose hits that act by an unwanted route or on another target.
Data set [10] can be described thus: inhibitors of intracellular T. cruzi replication, confirmation, NIH3T3 host cells, beta-gal luminescence (AID 2044).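 Note: intracellular parasites grown in NIH/3T3 mouse fibroblasts as host cells; luminescent beta-galactosidase reporter signal from transgenic T. cruzi replicating inside host cells; inhibitors lower the luminescence signal.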 It is filed as functional, cell-based.
The target of data set [11] is T2, Heat shock factor protein 1 (Mus musculus, UniProt P38532).
T2 sequence (P38532 whole entry): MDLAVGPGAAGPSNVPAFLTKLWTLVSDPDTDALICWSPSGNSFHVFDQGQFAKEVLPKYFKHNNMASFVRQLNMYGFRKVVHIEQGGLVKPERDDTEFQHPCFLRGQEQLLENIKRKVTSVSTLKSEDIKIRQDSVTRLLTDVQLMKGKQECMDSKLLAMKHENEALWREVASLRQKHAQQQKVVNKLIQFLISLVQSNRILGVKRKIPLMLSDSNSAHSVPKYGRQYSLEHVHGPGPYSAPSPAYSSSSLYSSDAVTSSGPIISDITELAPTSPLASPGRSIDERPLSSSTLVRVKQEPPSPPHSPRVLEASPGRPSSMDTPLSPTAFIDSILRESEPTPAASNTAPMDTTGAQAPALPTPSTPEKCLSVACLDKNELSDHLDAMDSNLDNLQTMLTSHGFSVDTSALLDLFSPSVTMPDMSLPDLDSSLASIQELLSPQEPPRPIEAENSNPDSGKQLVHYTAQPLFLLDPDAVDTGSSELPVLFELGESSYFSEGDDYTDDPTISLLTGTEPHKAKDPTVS
As to the kind of experiment: inhibition of MG132-induced HSE-luciferase signal, confirmation, cell-based, NIH3T3, luminescence, dose retest (AID 2382).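 Note: NIH3T3 fibroblasts with HSF1-driven luciferase reporter stressed by proteasome inhibitor MG132; luminescence from HSF1-driven luciferase expression after 8 hours of MG132 stress.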 The format is functional.

In data set [12] the target is T3, Corticotropin-releasing factor receptor 2/Corticotropin-releasing factor-binding protein (Homo sapiens, UniProt P24387+Q13324).
T3 sequence (Q13324 whole entry): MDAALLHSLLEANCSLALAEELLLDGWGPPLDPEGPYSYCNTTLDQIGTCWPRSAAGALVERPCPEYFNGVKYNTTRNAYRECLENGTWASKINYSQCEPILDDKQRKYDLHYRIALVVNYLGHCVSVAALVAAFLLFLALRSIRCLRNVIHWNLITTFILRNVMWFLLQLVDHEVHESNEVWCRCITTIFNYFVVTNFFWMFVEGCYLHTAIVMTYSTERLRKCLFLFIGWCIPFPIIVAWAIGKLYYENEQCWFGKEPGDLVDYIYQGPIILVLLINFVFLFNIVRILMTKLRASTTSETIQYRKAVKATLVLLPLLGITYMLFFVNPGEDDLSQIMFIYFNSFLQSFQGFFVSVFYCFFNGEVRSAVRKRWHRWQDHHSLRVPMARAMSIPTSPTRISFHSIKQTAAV
T3 sequence (P24387 whole entry): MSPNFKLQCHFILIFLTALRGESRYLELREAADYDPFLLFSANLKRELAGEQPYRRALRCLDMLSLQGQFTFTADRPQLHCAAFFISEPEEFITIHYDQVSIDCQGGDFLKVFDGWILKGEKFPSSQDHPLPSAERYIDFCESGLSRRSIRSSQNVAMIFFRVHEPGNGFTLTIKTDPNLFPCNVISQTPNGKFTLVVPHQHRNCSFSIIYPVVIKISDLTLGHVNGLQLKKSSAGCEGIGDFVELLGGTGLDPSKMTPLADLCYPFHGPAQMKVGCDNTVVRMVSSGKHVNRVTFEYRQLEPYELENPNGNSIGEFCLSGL
Briefly: activators of CRF receptor 2 with binding protein – uHTS hits, confirmation (AID 602473). The format is functional. As to conditions: read-out: EC50_Mean.

Data set [13] addresses T3, Corticotropin-releasing factor receptor 2/Corticotropin-releasing factor-binding protein. Briefly: Dose Response confirmation of uHTS hits for small molecule antagonists of the CRF-binding protein and CRF-R2 receptor complex. The format is functional. As to conditions: read-out: IC50_Mean.

“And” between values parts separate entries of the source, which are not always exact repeats. Equal values may be shown once. The source made the active and inactive calls.

Sequence of Cytochrome P450 3A4 (P08684 whole entry): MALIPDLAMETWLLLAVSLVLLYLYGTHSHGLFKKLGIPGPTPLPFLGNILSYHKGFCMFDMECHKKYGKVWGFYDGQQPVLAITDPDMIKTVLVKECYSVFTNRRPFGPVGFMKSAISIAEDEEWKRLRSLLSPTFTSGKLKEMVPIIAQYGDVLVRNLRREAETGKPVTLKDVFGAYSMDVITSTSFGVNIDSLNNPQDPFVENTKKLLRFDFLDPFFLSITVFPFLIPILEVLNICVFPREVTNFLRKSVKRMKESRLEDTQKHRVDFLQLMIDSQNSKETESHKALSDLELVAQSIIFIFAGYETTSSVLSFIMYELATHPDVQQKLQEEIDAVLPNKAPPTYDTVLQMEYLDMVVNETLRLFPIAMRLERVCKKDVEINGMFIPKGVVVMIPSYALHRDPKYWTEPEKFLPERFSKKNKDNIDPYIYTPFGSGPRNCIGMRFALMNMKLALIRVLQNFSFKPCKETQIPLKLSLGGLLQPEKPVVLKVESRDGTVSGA
Sequence of Cytochrome P450 2C9 (P11712 whole entry): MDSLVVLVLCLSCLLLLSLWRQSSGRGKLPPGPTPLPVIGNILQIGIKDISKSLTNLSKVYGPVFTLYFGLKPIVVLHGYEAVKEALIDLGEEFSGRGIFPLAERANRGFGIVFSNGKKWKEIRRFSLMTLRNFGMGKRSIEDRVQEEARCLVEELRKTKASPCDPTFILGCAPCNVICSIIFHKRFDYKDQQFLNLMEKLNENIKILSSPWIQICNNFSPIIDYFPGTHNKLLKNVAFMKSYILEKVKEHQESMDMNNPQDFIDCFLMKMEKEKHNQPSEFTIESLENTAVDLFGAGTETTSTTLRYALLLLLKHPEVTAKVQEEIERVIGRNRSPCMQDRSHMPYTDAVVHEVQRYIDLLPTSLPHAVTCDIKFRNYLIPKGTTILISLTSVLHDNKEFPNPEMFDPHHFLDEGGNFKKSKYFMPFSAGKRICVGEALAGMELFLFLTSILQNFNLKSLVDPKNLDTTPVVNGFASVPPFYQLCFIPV
Sequence of Cytochrome P450 2C19 (P33261 whole entry): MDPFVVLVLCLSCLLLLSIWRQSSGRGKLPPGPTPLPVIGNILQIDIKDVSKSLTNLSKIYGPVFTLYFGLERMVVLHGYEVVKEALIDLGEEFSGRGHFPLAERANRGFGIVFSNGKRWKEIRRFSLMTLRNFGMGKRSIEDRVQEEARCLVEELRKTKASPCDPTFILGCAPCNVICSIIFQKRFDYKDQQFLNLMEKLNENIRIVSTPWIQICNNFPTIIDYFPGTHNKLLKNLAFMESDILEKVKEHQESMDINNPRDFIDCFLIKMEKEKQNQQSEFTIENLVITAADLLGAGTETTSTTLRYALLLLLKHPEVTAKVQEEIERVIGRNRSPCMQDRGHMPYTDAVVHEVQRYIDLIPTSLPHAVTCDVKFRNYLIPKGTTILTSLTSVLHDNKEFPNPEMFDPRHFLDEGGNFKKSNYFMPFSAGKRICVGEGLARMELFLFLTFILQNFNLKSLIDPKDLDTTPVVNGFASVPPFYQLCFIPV
Sequence of Cytochrome P450 2D6 (P10635 whole entry): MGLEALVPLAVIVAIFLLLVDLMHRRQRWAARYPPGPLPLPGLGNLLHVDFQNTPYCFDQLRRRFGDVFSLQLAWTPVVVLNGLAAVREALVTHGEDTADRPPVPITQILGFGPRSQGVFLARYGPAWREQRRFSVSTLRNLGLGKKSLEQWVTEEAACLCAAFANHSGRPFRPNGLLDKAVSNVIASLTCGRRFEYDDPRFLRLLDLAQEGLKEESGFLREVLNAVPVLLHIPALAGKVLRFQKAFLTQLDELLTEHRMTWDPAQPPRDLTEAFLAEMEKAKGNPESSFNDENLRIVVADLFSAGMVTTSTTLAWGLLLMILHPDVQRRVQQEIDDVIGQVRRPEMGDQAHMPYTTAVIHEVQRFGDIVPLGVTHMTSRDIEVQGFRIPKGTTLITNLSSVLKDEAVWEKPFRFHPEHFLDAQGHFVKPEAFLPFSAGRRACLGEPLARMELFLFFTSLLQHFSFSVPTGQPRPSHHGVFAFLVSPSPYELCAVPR

Turning to `O=C(Nc1cccc(F)c1)N1CCC2(CC1)CCN(C(=O)c1ccncc1)CC2`, the AC50 (commonly the concentration giving half of the maximal activity seen) in data set [1] was 12.6 µM (inconclusive).

Turning to `COc1ccc(CCN=C(NS(=O)(=O)c2ccc(Cl)cc2)c2ccccc2)cc1`, the EC50 in [2], in data set [3] and in data set [4] was > 120 µM (not active) each time.

`COc1cccc(Cn2c(=O)c(-c3cccc(F)c3)nc3cncnc32)c1`: the concentration at half-maximal activity (AC50) was 20 µM (inconclusive) in data set [5] and 7.94 µM (inconclusive) in data set [1].

Consider `O=C(CCn1nc(-c2ccc(Cl)cc2)c2ccccc2c1=O)NCCN1CCOCC1`, for which the figures for the AC50 in data set [6] (read-out: AC50), in data set [5] and in data set [7] were 28.2 µM (inconclusive), 15.8 µM (inconclusive) and 17.8 µM (inconclusive), respectively.

On to `Cc1ccc(C)c(NC(=S)N(CCc2nc3cc(C)c(C)cc3[nH]2)Cc2cccnc2)c1`, for which the AC50 in data set [6] (read-out: AC50) is 2 µM (inconclusive); in data set [8] it was 4.47 µM (inconclusive). Also, the values for the EC50 in data set [9] and in data set [10] were > 60 µM (not active) and 0.813 µM (active), respectively.

In the case of `O=C(Nc1ccccn1)c1cc(-c2cccc(Cl)c2)nc2ccccc12`, the EC50 in [2] is > 120 µM (not active); in [3] it was 15.3 µM (active); in data set [4], > 120 µM (not active).

Take `Cc1cc(NC(=O)CSc2ccc3nnc(-c4ccc(F)cc4)n3n2)no1`: the values for the AC50 in data set [1] and in [7] were 14.1 µM (inconclusive) and 25.1 µM (inconclusive), respectively.

As for `CO[C@@H]1/C=C\CC(=O)N[C@@H](C)C(=O)OC[C@@H](OC)[C@H](C)/C=C\CC(=O)OC[C@H]1C`, the AC50 in data set [1] was 3.98 µM (inconclusive).

As to `Cc1ccccc1CS(=O)(=O)CCC(=O)NCCCN1CCN(c2ccccc2F)CC1`, the values for the AC50 result in [6] and in data set [7] were “inconclusive” and 5.62 µM (inconclusive), respectively.

On to `Cc1cc(C)n(-c2nc3c(c(=O)[nH]c(=O)n3C)n2CC(O)COc2ccc(Cl)cc2Cl)n1` (centres undefined), for which the EC50 in [2] was 11.6 µM (active); in [3] it was 9.24 µM (active); in data set [4] it was 10.3 µM (active).

On to `COC(=O)c1c(C)ccc2c(O)c3c(cc12)C(=O)c1c2c(cc(O)c1C3=O)[C@@]1(C)O[C@@](C)(O2)[C@@H](O)[C@H](N(C)C)[C@H]1O`, for which the AC50 in [6] (read-out: AC50) is 3.98 µM (inconclusive); in data set [8] it was 5.01 µM (inconclusive); in data set [7], 2.51 µM (inconclusive).

For `Cc1ccc(C(=O)Nc2cccnc2Oc2ccc(Cl)cc2)cc1`, the EC50 was 17.6 µM (active) in [2], > 120 µM (not active) in [3] and > 120 µM (not active) in data set [4].

As for `COc1cc2c(cc1OC)[C@]13CC[N@+]4(C)CC5=CCO[C@H]6CC(=O)N2[C@@H]1[C@@H]6[C@@H]5C[C@]34O`, the AC50 in data set [1] is 1 µM (inconclusive).

Consider `O=C(NCCNS(=O)(=O)c1ccc(Cl)cc1)c1cc(OCC(F)(F)F)ccc1OCC(F)(F)F`, for which the AC50 in [5] is 3.16 µM (inconclusive); in data set [8], 2.82 µM (inconclusive); in [1], 7.08 µM (inconclusive); in [7], 0.0251 µM (inconclusive).

Turning to `C/C(=N\NC(=O)c1cccc(C)c1)c1cccc(NC(=O)c2ccco2)c1`, the AC50 is 39.8 µM (inconclusive) in [6] (read-out: AC50), 14.1 µM (inconclusive) in data set [8] and 39.8 µM (inconclusive) in data set [7].

Take `O=C(c1ccncc1)N1CCC2(CC1)CCN(c1ccccn1)CC2`: the figures for the AC50 in data set [6] (read-out: AC50), in [5] and in data set [8] were 1 µM (inconclusive), 31.6 µM (inconclusive) and 12.6 µM (inconclusive), respectively.

On to `O=C(N/N=C/C=C/c1ccccc1)c1[nH]nc2c1CCC2`, for which the EC50 in [2] was 10.6 µM (inconclusive); in [3], 3.42 µM (active).

Take `Cc1cccc(Nc2ncccc2C(=O)O)c1C` [NIXYLIC ACID]: the EC50 in data set [11] is given as > 195 µM (not active).

In the case of `CSC1=N/C(=C\c2ccc3c(c2)OCO3)C(=O)S1`, the AC50 in [1] is 7.94 µM (inconclusive).

As to `COc1cc(Br)cc(/C=N/N(CCO)C2=NS(=O)(=O)c3ccccc32)c1OC`, the EC50 in [2] was 18.5 µM (active); in data set [3] it was 18.1 µM (active); in data set [4] it was > 120 µM (not active).

Turning to `COc1ccccc1N1CCN(CCN2C(=O)CC3(CCCC3)CC2=O)CC1` [BMY-7378], in data set [1], the half-maximal activity concentration (AC50) was 20 µM (inconclusive) and 39.8 µM (inconclusive).

Turning to `CC[C@@]1(O)C(=O)COc2c1cc1n(c2=O)Cc2c-1nc1cccc(C(C)C)c1c2[Si](C)(C)C`, in [1], the AC50 is 15.8 µM (inconclusive).

For the compound `Cc1noc(C)c1-c1cncnc1NCc1cccnc1`, the AC50 in data set [6] (read-out: AC50) is 15.8 µM (inconclusive).

For `N#Cc1cccc(-c2nc(Nc3ccncc3)c3ccccc3n2)c1`, the values for the AC50 in data set [1] and in data set [7] were 0.501 µM (inconclusive) and 1.58 µM (inconclusive), respectively.

Take `CN(C)Cc1ccccc1-c1nccc(N(C)Cc2ccco2)n1`: the concentration at half-maximal activity (AC50) in data set [1] was 31.6 µM (inconclusive).

For the compound `COc1ccc(OC)c(N(CC(=O)N2CCc3ccccc3C2)S(C)(=O)=O)c1`, the AC50 in [6] (read-out: AC50) was 11.2 µM (inconclusive); in [8], 15.8 µM (inconclusive); in data set [7], 12.6 µM (inconclusive).

For the compound `CCCCN1CN=C(S)N(c2ccc(C(=O)OCC)cc2)C1`, the EC50 in data set [11] was > 195 µM (not active).

For the compound `C[n+]1cccc(CNC(=O)C=NO)c1`, the half-maximal activity concentration (AC50) in data set [6] (read-out: AC50) was 10 µM (inconclusive).

On to `CCNc1ncc2nc(-c3cccs3)c(=O)n(Cc3cccs3)c2n1`, for which the values for the AC50 in data set [6] (read-out: AC50) and in data set [7] were 10 µM (inconclusive) and 39.8 µM (inconclusive), respectively.

Consider `O=S(=O)(N1CCCCC1)N1CCN(c2ccc(F)cc2)CC1`, for which, in data set [11], the EC50 is on record as > 195 µM (not active).

In the case of `O=c1c2c(n3cnnc3n1-c1ccccc1)-c1ccccc1CC21CCCCC1`, the AC50 result in [6] was “inconclusive”; in data set [1], 15.8 µM (inconclusive).

Turning to `O=C1N=C(N2CCOCC2)S/C1=C/c1cccs1`, in data set [6] (read-out: AC50), the AC50 was 25.1 µM (inconclusive).

For the compound `CCOc1ccc(C2=Nn3c(nnc3-c3ccco3)SC2)cc1`, the AC50 in [1] was 15.8 µM (inconclusive).

For `CCOC(=O)N1CCN(C(=O)c2ccc3nc(SCc4ccc(F)cc4)n(C)c3c2)CC1`, the EC50 in [12] was > 53 µM (inactive). Besides, in data set [1], the AC50 is 39.8 µM (inconclusive). For the same compound, the IC50 in [13] was > 47.1 µM (inactive).
